Converted amounts (≈) assume the structure as drawn.
Assays:
Format in all cases: cell-based
[1] = system: Fusarium virguliforme (Fv); assay: In vitro pathogen growth inhibition assay, Fv; conditions: ≥90% inhibition, 48 hours vs 2% DMSO control, read-out: Compound Concentration (ppm) sufficient for ≥90% inhibition of growth, Fv
Description: (§1) A growth inhibition assay was conducted to determine the ability of compounds to control the growth of fungal pathogens, such as Botrtyis cinerea (Bc), Collectotrichum graminicola (Cg), Diplodia maydis (Dm), Fusarium moniliforme (Fm), Fusarium virguliforme (Fv), Phytophthora capsici (Pc), Rhizoctonia solani (Rs), and Septoria tritici (St). The compounds listed in Table 1 were each dissolved in DMSO at 2.5 mg/ml to produce compound stock solutions (“stocks”). […] Negative controls on each plate included 2% DMSO, water, and a blank (media+2% DMSO). Fungal spores were isolated from previously sub-cultured plates of Botrtyis cinerea (Bc), Collectotrichum graminicola (Cg), Diplodia maydis (Dm), Fusarium moniliforme (Fm), Fusarium virguliforme (Fv), Phytophthora capsici (Pc), and Septoria tritici (St). The isolated spores were diluted to individual concentrations with a 17% V8 liquid media. For Rhizoctonia solani (Rs), 1.5 mm mycelial plugs were used in place of spores and ¼ Potato Dextrose Broth (PDB) was used for dilution. The spore concentrations and plug sizes were based on growth curves generated at 48 hours for each pathogen. In a second 96-well plate, the spores or mycelial plugs, media, diluted compound solutions, and controls were combined. Once the compound was added, a true final concentration of compound in each well was measured by an OD600 reading, which adjusted for any compound precipitation that might have occurred in the well. Plate readings were repeated at both 24 and 48 hours. The blank negative control was used as a background subtraction. Additional visual ratings were performed at both 24 and 48 hours for checking on precipitation and confirming efficacy. […] Both tables list the concentration of each compound that was sufficient to ≥90% inhibition of growth for each of the fungal pathogens listed above. In addition, some of compounds were tested in a yeast growth inhibition assay for Saccharomyces cerevisiae (Sc). Table 2 lists the concentration of the tested compound that was sufficient to ≥75% inhibition of Saccharomyces cerevisiae (Sc).

[2] = system: Collectotrichum graminicola (Cg); assay: In vitro pathogen growth inhibition assay, Cg; conditions: 48 h, ≥90% inhibition; 48 hours vs 2% DMSO control; read-out: Compound Concentration (ppm) sufficient for ≥90% inhibition of growth, Cg
Description: as §1

Septoria tritici (St) = assay: In vitro pathogen growth inhibition assay, St; conditions: Zymoseptoria tritici, 48 h, ≥90% inhibition; 48 hours vs 2% DMSO control; read-out: Compound Concentration (ppm) sufficient for ≥90% inhibition of growth, St
Description: as §1

Botrtyis cinerea (Bc) = assay: In vitro pathogen growth inhibition assay, Bc; conditions: 48 h, ≥90% inhibition; 48 hours vs 2% DMSO control; read-out: Compound Concentration (ppm) sufficient for ≥90% inhibition of growth, Bc
Description: as §1

[3] = system: Phytophthora capsici (Pc); assay: In vitro pathogen growth inhibition assay, Pc; conditions: 48 h, ≥90% inhibition, 48 hours vs 2% DMSO control, read-out: Compound Concentration (ppm) sufficient for ≥90% inhibition of growth, Pc
Description: as §1

Diplodia maydis (Dm) = assay: In vitro pathogen growth inhibition assay, Dm; conditions: Stenocarpella maydis, 48 h, ≥90% inhibition; 48 hours vs 2% DMSO control; read-out: Compound Concentration (ppm) sufficient for ≥90% inhibition of growth, Dm
Description: as §1

Rhizoctonia solani (Rs) = assay: In vitro pathogen growth inhibition assay, Rs (mycelial plugs); conditions: Rhizoctonia solani, 48 h, ≥90% inhibition; mycelial plugs; 48 hours vs 2% DMSO control; read-out: Compound Concentration (ppm) sufficient for ≥90% inhibition of growth, Rs
Description: as §1

[4] = system: Fusarium moniliforme (Fm); assay: In vitro pathogen growth inhibition assay, Fm; conditions: Fusarium verticillioides; ≥90% inhibition; 48 hours vs 2% DMSO control; read-out: Compound Concentration (ppm) sufficient for ≥90% inhibition of growth, Fm
Description: as §1

SMILES	IC90 [1] [µg/mL]	IC90 [2] [µg/mL]	IC90 (Septoria tritici (St)) [µg/mL]	IC90 (Botrtyis cinerea (Bc)) [µg/mL]	IC90 [3] [µg/mL]	IC90 (Diplodia maydis (Dm)) [µg/mL]	IC90 (Rhizoctonia solani (Rs)) [µg/mL]	IC90 [4] [µg/mL]
COc1ccc(F)cc1[C@H](Cn1c(=O)n(C(C)(C)C(=O)NC2CCC2)c(=O)c2c(C)c(-n3nccn3)sc21)OC1CCOCC1 [Compound I-038]	0.4 (≈ 0.624 µM)	0.4 (≈ 0.624 µM)	≥ 2	0.4 (≈ 0.624 µM)	10 (≈ 15.6 µM)	0.4 (≈ 0.624 µM)	0.08 (≈ 0.125 µM)	0.08 (≈ 0.125 µM)
COc1ccc(F)cc1[C@H](Cn1c(=O)n(C(C)(C)C(=O)NC2CCCCC2)c(=O)c2c(C)c(-n3nccn3)sc21)OC1CCOCC1 [Compound I-039]	0.4 (≈ 0.598 µM)	2 (≈ 2.99 µM)	≥ 2	0.4 (≈ 0.598 µM)	> 50	0.4 (≈ 0.598 µM)	0.4 (≈ 0.598 µM)	0.08 (≈ 0.12 µM)
COc1ccc(F)cc1[C@H](Cn1c(=O)n(C(C)(C)C(=O)NCC(C)C)c(=O)c2c(C)c(-n3nccn3)sc21)OC1CCOCC1 [Compound I-040]	0.4 (≈ 0.622 µM)	≥ 0.4	≥ 10	0.4 (≈ 0.622 µM)	> 50	≥ 0.4	2 (≈ 3.11 µM)	0.08 (≈ 0.124 µM)
COc1ccccc1[C@H](Cn1c(=O)n(C(C)(C)C(=O)NCC(C)C)c(=O)c2c(C)c(-n3nccn3)sc21)OC1CCOCC1 [Compound I-041]	2 (≈ 3.2 µM)	2 (≈ 3.2 µM)	> 10	0.4 (≈ 0.64 µM)	> 50	≥ 2	0.08 (≈ 0.128 µM)	0.08 (≈ 0.128 µM)
COc1ccccc1[C@H](Cn1c(=O)n(C(C)(C)C(=O)NC2CCC2)c(=O)c2c(C)c(-n3nccn3)sc21)OC1CCOCC1 [Compound I-042]	0.4 (≈ 0.642 µM)	≥ 0.4	≥ 10	0.4 (≈ 0.642 µM)	≥ 10	≥ 0.4	0.08 (≈ 0.128 µM)	0.08 (≈ 0.128 µM)
COc1ccccc1[C@H](Cn1c(=O)n(C(C)(C)C(=O)NC2CCCCC2)c(=O)c2c(C)c(-n3nccn3)sc21)OC1CCOCC1 [Compound I-043]	2 (≈ 3.07 µM)	> 2	> 10	0.4 (≈ 0.615 µM)	> 10	0.4 (≈ 0.615 µM)	0.4 (≈ 0.615 µM)	0.08 (≈ 0.123 µM)
COc1ccc(F)cc1[C@H](Cn1c(=O)n(C(C)(C)C(=O)N2CCCC2)c(=O)c2c(C)c(-n3cccn3)sc21)OC(C)C [Compound I-044]	0.4 (≈ 0.669 µM)	0.4 (≈ 0.669 µM)	> 50	0.4 (≈ 0.669 µM)	> 50	2 (≈ 3.35 µM)	0.4 (≈ 0.669 µM)	0.08 (≈ 0.134 µM)
COc1ccc(F)cc1[C@H](Cn1c(=O)n(C(C)(C)C(=O)N2CCCC2)c(=O)c2c(C)c(-n3cccn3)sc21)OC1CCOCC1 [Compound I-045]	10 (≈ 15.6 µM)	≥ 0.4	> 50	2 (≈ 3.13 µM)	> 50	≥ 2	2 (≈ 3.13 µM)	0.08 (≈ 0.125 µM)
COc1ccccc1[C@H](Cn1c(=O)n(C(C)(C)C(=O)N2CCCC2)c(=O)c2c(C)c(-n3cccn3)sc21)OC(C)C [Compound I-046]	0.4 (≈ 0.69 µM)	2 (≈ 3.45 µM)	≥ 50	2 (≈ 3.45 µM)	> 50	2 (≈ 3.45 µM)	0.4 (≈ 0.69 µM)	0.08 (≈ 0.138 µM)
COc1ccccc1[C@H](Cn1c(=O)n(C(C)(C)C(=O)N2CCCCC2)c(=O)c2c(C)c(-n3cccn3)sc21)OC(C)C [Compound I-047]	0.4 (≈ 0.674 µM)	≥ 2	> 50	0.4 (≈ 0.674 µM)	> 50	2 (≈ 3.37 µM)	2 (≈ 3.37 µM)	0.08 (≈ 0.135 µM)
COc1ccc(F)cc1[C@H](Cn1c(=O)n(C(C)(C)C(=O)NC(C)C)c(=O)c2c(C)c(-n3cccn3)sc21)OC1CCC(=O)CC1 [Compound I-048]	2 (≈ 3.13 µM)	10 (≈ 15.6 µM)	> 50	0.4 (≈ 0.625 µM)	> 50	2 (≈ 3.13 µM)	2 (≈ 3.13 µM)	0.08 (≈ 0.125 µM)
COc1ccc(F)cc1[C@H](Cn1c(=O)n(C(C)(C)C(=O)NC(C)C)c(=O)c2c(C)c(-n3cccn3)sc21)O[C@H]1CC[C@@H](O)CC1 [Compound I-049]	2 (≈ 3.12 µM)	50 (≈ 77.9 µM)	> 50	0.4 (≈ 0.623 µM)	> 50	2 (≈ 3.12 µM)	2 (≈ 3.12 µM)	0.08 (≈ 0.125 µM)

Other lines, results leading:

IC90 [1] [µg/mL]	IC90 [2] [µg/mL]	IC90 (Septoria tritici (St)) [µg/mL]	IC90 (Botrtyis cinerea (Bc)) [µg/mL]	IC90 [3] [µg/mL]	IC90 (Diplodia maydis (Dm)) [µg/mL]	IC90 (Rhizoctonia solani (Rs)) [µg/mL]	IC90 [4] [µg/mL]	SMILES
0.4 (≈ 0.624 µM)	2 (≈ 3.12 µM)	> 50	0.08 (≈ 0.125 µM)	50 (≈ 78 µM)	≥ 0.08	0.08 (≈ 0.125 µM)	0.08 (≈ 0.125 µM)	COc1ccc(F)cc1[C@H](Cn1c(=O)n(C(C)(C)C(=O)NC(C)C)c(=O)c2c(C)c(-n3nccn3)sc21)OC1CCC(=O)CC1 [Compound I-050]
0.4 (≈ 0.613 µM)	0.4 (≈ 0.613 µM)	> 50	0.4 (≈ 0.613 µM)	> 50	≥ 0.4	0.4 (≈ 0.613 µM)	0.08 (≈ 0.123 µM)	COc1ccc(F)cc1[C@H](Cn1c(=O)n(C(C)(C)C(=O)N2CCCC2)c(=O)c2c(C)c(-n3nccn3)sc21)OC1CCC(=O)CC1 [Compound I-051]
0.4 (≈ 0.6 µM)	≥ 0.4	> 50	0.4 (≈ 0.6 µM)	> 50	2 (≈ 3 µM)	2 (≈ 3 µM)	0.08 (≈ 0.12 µM)	COc1ccc(F)cc1[C@H](Cn1c(=O)n(C(C)(C)C(=O)N2CCCCC2)c(=O)c2c(C)c(-n3nccn3)sc21)OC1CCC(=O)CC1 [Compound I-052]
0.4 (≈ 0.685 µM)	2 (≈ 3.43 µM)	≥ 50	0.4 (≈ 0.685 µM)	> 50	≥ 2	2 (≈ 3.43 µM)	0.08 (≈ 0.137 µM)	CCO[C@@H](Cn1c(=O)n(C(C)(C)C(=O)N2CCCC2)c(=O)c2c(C)c(-n3cccn3)sc21)c1cc(F)ccc1OC [Compound I-053]
≥ 0.08	0.4 (≈ 0.698 µM)	10 (≈ 17.5 µM)	0.4 (≈ 0.698 µM)	> 50	0.4 (≈ 0.698 µM)	0.4 (≈ 0.698 µM)	0.08 (≈ 0.14 µM)	CCO[C@@H](Cn1c(=O)n(C(C)(C)C(=O)NC(C)C)c(=O)c2c(C)c(-n3nccn3)sc21)c1cc(F)ccc1OC [Compound I-054]
≥ 0.08	0.08 (≈ 0.137 µM)	≥ 2	0.4 (≈ 0.684 µM)	> 50	≥ 0.4	0.4 (≈ 0.684 µM)	0.08 (≈ 0.137 µM)	CCO[C@@H](Cn1c(=O)n(C(C)(C)C(=O)N2CCCC2)c(=O)c2c(C)c(-n3nccn3)sc21)c1cc(F)ccc1OC [Compound I-055]
0.24 (≈ 0.41 µM)	0.08 (≈ 0.137 µM)	26 (≈ 44.5 µM)	0.4 (≈ 0.684 µM)	30 (≈ 51.3 µM)	0.08 (≈ 0.137 µM)	0.24 (≈ 0.41 µM)	0.08 (≈ 0.137 µM)	COc1ccc(F)cc1[C@H](Cn1c(=O)n(C(C)C(=O)N2CCCC2)c(=O)c2c(C)c(-n3nccn3)sc21)OC(C)C (some centres unmarked) [Compound I-056]
0.4 (≈ 0.698 µM)	0.08 (≈ 0.14 µM)	50 (≈ 87.3 µM)	0.4 (≈ 0.698 µM)	50 (≈ 87.3 µM)	0.4 (≈ 0.698 µM)	0.4 (≈ 0.698 µM)	0.08 (≈ 0.14 µM)	COc1ccc(F)cc1[C@H](Cn1c(=O)n([C@@H](C)C(=O)NC(C)C)c(=O)c2c(C)c(-n3nccn3)sc21)OC(C)C [Compound I-057]
0.08 (≈ 0.137 µM)	0.08 (≈ 0.137 µM)	> 50	0.4 (≈ 0.684 µM)	≥ 10	0.08 (≈ 0.137 µM)	0.4 (≈ 0.684 µM)	0.08 (≈ 0.137 µM)	COc1ccc(F)cc1[C@H](Cn1c(=O)n([C@@H](C)C(=O)N2CCCC2)c(=O)c2c(C)c(-n3nccn3)sc21)OC(C)C [Compound I-058]
≥ 0.08	0.4 (≈ 0.701 µM)	10 (≈ 17.5 µM)	0.08 (≈ 0.14 µM)	> 50	0.4 (≈ 0.701 µM)	0.4 (≈ 0.701 µM)	0.08 (≈ 0.14 µM)	COc1ccc(F)cc1[C@H](Cn1c(=O)n(CC(=O)N2CCCC2)c(=O)c2c(C)c(-n3nccn3)sc21)OC(C)C [Compound I-059]

Reference: patent publication US10941157B2, “Pesticidal compositions and uses thereof” (Gilead Apollo, LLC, priority 2015, dated 2021)
